Measured values taken from US20090075935A1, “COMPOSITION COMPRISING AT LEAST ONE C-GLYCOSIDE DERIVATIVE AND AT LEAST ONE HYALURONIC ACID AND ITS COSMETIC USE” (L'OREAL, priority 2006, published 2009).
One block for each molecule: values may come before it.

Test system: keratinocyte transglutaminase (TGk)
Experiment: Assaying of keratinocyte transglutaminase (TGk) activity in mitomycin-pretreated NHEKs in deficient medium (radiochemical assay)
Format: cell-based, human
Set-up: key to Significant variation relative to the control: NS = not significant
Details: for % Activity relative to the control / Significant variation relative to the control: TGk activity, medium with mitomycin, depleted medium, 96 hours
From the text: For this, normal human epidermal keratinocytes (NHEKs), pretreated with mitomycin so as to prevent proliferation thereof, in a deficient medium made up of 40% of depleted SFM medium and 60% of Earle's balanced salt solution (EBSS) buffer were placed in culture. The metabolism of these cells having been thus slowed down, their ability to differentiate is then quantified by assaying, using a standard radiochemical assay, the keratinocyte transglutaminase activity (TGk) of the NHEKs pretreated with the active agents. […] Normal human keratinocytes were cultured at 37° C. and 5% CO2 for 24 h in complete SFM medium. The cell divisions were then blocked by treatment with mitomycin C (10 μg/ml) for 2 hours at 37° C. and 5% CO2. The cells were then incubated for 96 hours in deficient or nondeficient (control) medium containing or not containing various concentrations of the test or reference products. […] The treatments were carried out in triplicate (n=3). At the end of the incubation, the TGk membrane enzyme was extracted in the presence of Triton X-100 and the TGk activity was determined by measuring the covalent addition of tritiated putrescine, at a final concentration of 2 μCi/ml, to caseine (acceptor protein, 2 mg/ml final concentration). The caseine was precipitated by addition of trichloroacetic acid (TCA) and the precipitates were recovered on filters and a collector and then the dry filters were counted by liquid scintillation.

Molecule: CC(O)CO (stereo not drawn) [1,2-propanediol]
% Activity relative to the control (0.16%): 87%
Significant variation relative to the control (0.16%): NS
effect on the TGk activity (tested at 0.8%): did not modify the activity

% Activity relative to the control (0.02%): 88%
Significant variation relative to the control (0.02%): NS
effect on the keratinocyte transglutaminase activity (tested alone at 0.02%): no effect
Molecule: Hyaluronic acid

% Activity relative to the control (0.06%): 128%
Significant variation relative to the control (0.06%): NS
effect on the TGk activity (tested at 0.06%): no significant effect
Molecule: CC(O)C[C@@H]1OC[C@@H](O)[C@H](O)[C@H]1O (stereo partly drawn) [C-β-D-xylopyranoside-2-hydroxypropane]

Molecule: [Ca+2].[Cl-].[Cl-] [CaCl2, Calcium chloride, reference compound]
effect on the TGk activity of the keratinocytes (1.5 mM): clearly increased the TGk activity
% Activity relative to the control (1.5 mM): 557%
Significant variation relative to the control (1.5 mM): +457%
